Publication PMC4941764, “Identification of 4-aminoquinoline core for the design of new cholinesterase inhibitors” (PeerJ, 2016)

Molecular target: T1, acetylcholinesterase (eeAChE) (Electrophorus electricus, UniProt O42275)
T1 construct: gene ache
Assay: Ellman assay, single concentration ([…])
Type: biochemical

T1 sequence (O42275 24-633): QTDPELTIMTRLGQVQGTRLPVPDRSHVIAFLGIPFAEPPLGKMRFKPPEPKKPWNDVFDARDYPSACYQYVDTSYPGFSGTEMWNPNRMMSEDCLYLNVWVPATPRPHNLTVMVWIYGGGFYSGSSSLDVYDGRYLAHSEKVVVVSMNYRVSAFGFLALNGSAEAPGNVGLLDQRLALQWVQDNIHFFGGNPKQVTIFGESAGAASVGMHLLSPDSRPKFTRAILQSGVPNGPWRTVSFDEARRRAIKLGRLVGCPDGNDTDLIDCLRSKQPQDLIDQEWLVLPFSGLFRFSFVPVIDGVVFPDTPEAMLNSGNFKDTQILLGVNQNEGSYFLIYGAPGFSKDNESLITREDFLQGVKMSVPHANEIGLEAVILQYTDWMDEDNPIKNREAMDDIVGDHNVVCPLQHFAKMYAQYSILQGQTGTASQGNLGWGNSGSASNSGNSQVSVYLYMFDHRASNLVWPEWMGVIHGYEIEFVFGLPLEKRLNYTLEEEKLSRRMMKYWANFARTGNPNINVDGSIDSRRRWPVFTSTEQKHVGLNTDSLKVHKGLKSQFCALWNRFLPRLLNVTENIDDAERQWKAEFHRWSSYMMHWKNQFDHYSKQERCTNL

SMILES: Nc1ccnc2ccccc12 [compound 03, 4-aminoquinoline]
- inhibition at 10 µM: 68.3 ± 1.83%
